We go through 20 compounds from patent US12612420B2, “Arginase inhibitors and methods of use thereof” (Molecure S.A., priority 2020, dated 2026).

The target in assay [1] is T1, recombinant human arginase 1 (hARG1) (Homo sapiens, UniProt P05089).
T1 construct: made in house; host or cells: E. coli
T1 sequence (P05089 1-322): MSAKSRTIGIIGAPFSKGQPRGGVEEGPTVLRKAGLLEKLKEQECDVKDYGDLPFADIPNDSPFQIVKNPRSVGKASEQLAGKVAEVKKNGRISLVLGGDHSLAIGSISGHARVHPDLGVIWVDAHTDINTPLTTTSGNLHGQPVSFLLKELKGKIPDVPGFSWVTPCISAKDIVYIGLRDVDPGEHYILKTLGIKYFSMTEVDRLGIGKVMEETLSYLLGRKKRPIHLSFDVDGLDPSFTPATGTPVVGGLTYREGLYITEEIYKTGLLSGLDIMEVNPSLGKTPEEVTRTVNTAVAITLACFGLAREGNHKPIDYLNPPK
Put plainly: Human arginase inhibition assay (colorimetric urea detection), arginase 1. The conditions noted are these: IC50 class; hydrochloride salts; 1 h at 37° C., pH 7.4, 10 mM L-arginine, 200 μM MnCl2; read-out: Activity Class (ARG I). Type of assay: biochemical. The procedure: (§1) Human Arginase Inhibition Assay
(§2) The inhibitory activities of the compounds of the invention were assessed using recombinant human arginases 1 and 2. Both enzymes were biosynthesized using a prokaryotic expression system (E. coli) and purified by fast protein liquid chromatography (FPLC). The compounds were screened in 96-well plates at the total reaction volume of 100 μL. Briefly, recombinant enzymes were incubated with the tested compounds for 1 h at 37° C. in the reaction buffer (100 mM sodium phosphate buffer, 130 mM NaCl, 1 mg/mL BSA, pH 7.4) containing substrate (L-arginine hydrochloride, 10 mM for hARG1 and 20 mM for hARG2) and cofactor (200 μM MnCl2). The assay is based on the detection of urea, which is generated during the conversion of L-arginine into L-omithine catalyzed by ARG1 or ARG2 (Baggio et al. J Pharmacol. Exp. Ther. 1999, 290, 1409-1416). The colorimetrically detectable product was developed by adding a mixture of reagent A (4 mM oPA, 50 mM boric acid, 1 M sulfuric acid, 0.03% Brij-35) and reagent B (4 mM NED, 50 mM boric acid, 1 M sulfuric acid, 0.03% Brij-35) in equal proportions. The absorbance for each well was measured at 515 nm and the enzyme inhibition was calculated. The urea production in the absence of any tested compound was considered as maximal enzyme activity. The absorbance at the absence of arginase (background) was subtracted from all the values. The normalized values were analyzed using GraphPad Prism 7.0 software by plotting inhibition curves and determining the IC50 values.
(§3) The inhibitory activity classes of the hydrochloride salts of the exemplary compounds according to the invention are presented in Table 1

Assay [2] addresses T2, recombinant human arginase 2 (hARG2) (Homo sapiens, UniProt P78540).
T2 construct: made in house; host or cells: E. coli
T2 sequence (P78540 23-354): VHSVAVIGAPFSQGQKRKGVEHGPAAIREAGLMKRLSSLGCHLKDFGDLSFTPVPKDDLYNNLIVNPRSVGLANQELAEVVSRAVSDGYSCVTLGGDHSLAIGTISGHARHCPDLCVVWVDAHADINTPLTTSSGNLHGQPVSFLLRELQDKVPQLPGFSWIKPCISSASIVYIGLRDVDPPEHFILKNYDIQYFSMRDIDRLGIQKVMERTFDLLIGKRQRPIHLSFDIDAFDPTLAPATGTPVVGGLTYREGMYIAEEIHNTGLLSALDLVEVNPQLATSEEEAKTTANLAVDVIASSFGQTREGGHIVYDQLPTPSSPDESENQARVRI
Put plainly: Human arginase inhibition assay (colorimetric urea detection), arginase 2. Type of assay: biochemical. As to conditions: IC50 class; hydrochloride salts; 1 h at 37° C., pH 7.4, 20 mM L-arginine, 200 μM MnCl2; read-out: Activity Class (ARG II). The procedure:
as §1, §2, §3

Where a name gives a salt, the structure may show the parent alone. Some results are limits rather than exact numbers.

With `CC(C)[C@@](C)(N)C(=O)NC[C@@H]1CC[C@@H](CCB(O)O)C[C@]1(N)C(=O)O` [Example 21, (1R,2S,5R)-1-Amino-2-((2-amino-2,3-dimethylbutanamido)methyl)-5-(2-boronoethyl)cyclohexane-1-carboxylic acid dihydrochloride], the IC50 in assay [1] is 200 to 299 nM; in assay [2] it was more than 300 nM.

For the compound `C[C@@H](N)C(=O)NC[C@@H]1CC[C@@H](CCB(O)O)C[C@]1(N)C(=O)O` [Example 22, (1R,2S,5R)-1-Amino-2-(((R)-2-aminopropanamido)methyl)-5-(2-boronoethyl)cyclohexane-1-carboxylic acid dihydrochloride], the IC50 in assay [1] is 1 to 99 nM; in assay [2], more than 300 nM.

For the compound `N[C@@H](Cc1c[nH]c2ccccc12)C(=O)NC[C@@H]1CC[C@@H](CCB(O)O)C[C@]1(N)C(=O)O` [Example 18, (1R,2S,5R)-1-Amino-2-(((S)-2-amino-3-(1H-indol-3-yl)propanamido)methyl)-5-(2-boronoethyl)cyclohexane-1-carboxylic acid dihydrochloride], the IC50 is 100 to 199 nM in assay [1] and more than 300 nM in assay [2].

As for `CC(C)[C@@H](N)C(=O)NC[C@@H]1CC[C@@H](CCB(O)O)C[C@]1(N)C(=O)O` [Example 23, (1R,2S,5R)-1-Amino-2-(((R)-2-amino-3-methylbutanamido)methyl)-5-(2-boronoethyl)cyclohexane-1-carboxylic acid dihydrochloride], the IC50 in assay [1] was 1 to 99 nM; in assay [2], more than 300 nM.

Consider `CCC[C@H](N)C(=O)NC[C@@H]1CC[C@@H](CCB(O)O)C[C@]1(N)C(=O)O` [Example 20, (1R,2S,5R)-1-Amino-2-(((S)-2-aminopentanamido)methyl)-5-(2-boronoethyl)cyclohexane-1-carboxylic acid dihydrochloride], for which the IC50 in assay [1] was 1 to 99 nM; in assay [2], more than 300 nM.

Consider `N[C@@H](Cc1c[nH]cn1)C(=O)NC[C@@H]1CC[C@@H](CCB(O)O)C[C@]1(N)C(=O)O` [Example 8, (1R,2S,5R)-1-Amino-2-(((S)-2-amino-3-(1H-imidazol-4-yl)propanamido)methyl)-5-(2-boronoethyl)cyclohexane-1-carboxylic acid trihydrochloride], for which the IC50 in assay [1] was 100 to 199 nM; in assay [2] it was more than 300 nM.

In the case of `Cn1cc(C[C@@H](N)C(=O)NC[C@@H]2CC[C@@H](CCB(O)O)C[C@]2(N)C(=O)O)c2ccccc21` [Example 26, (1R,2S,5R)-1-Amino-2-(((R)-2-amino-3-(1-methyl-1H-indol-3-yl)propanamido)methyl)-5-(2-boronoethyl)cyclohexane-1-carboxylic acid dihydrochloride], the IC50 in assay [1] is 100 to 199 nM; in assay [2], more than 300 nM.

For the compound `CN[C@]1(C(=O)O)C[C@H](CCB(O)O)CC[C@H]1CNC(=O)[C@H](C)N` [Example 36, (1R,2S,5R)-2-(((S)-2-Aminopropanamido)methyl)-5-(2-boronoethyl)-1-(methylamino)cyclohexane-1-carboxylic acid dihydrochloride], the IC50 in assay [1] and in assay [2] was more than 300 nM in each case.

For `C[C@@H](O)[C@H](N)C(=O)NC[C@@H]1CC[C@@H](CCB(O)O)C[C@]1(N)C(=O)O` [Example 19, (1R,2S,5R)-1-Amino-2-(((2S,3R)-2-amino-3-hydroxybutanamido)methyl)-5-(2-boronoethyl)cyclohexane-1-carboxylic acid dihydrochloride], the IC50 is 100 to 199 nM in assay [1] and more than 300 nM in assay [2].

Regarding `N[C@@H](CC(=O)O)C(=O)NC[C@@H]1CC[C@@H](CCB(O)O)C[C@]1(N)C(=O)O` [Example 29, (1R,2S,5R)-1-Amino-2-(((S)-2-amino-3-carboxypropanamido)methyl)-5-(2-boronoethyl)cyclohexane-1-carboxylic acid dihydrochloride], the IC50 in assay [1] and in assay [2] was more than 300 nM throughout.

For the compound `CCN[C@]1(C(=O)O)C[C@H](CCB(O)O)CC[C@H]1CNC(=O)[C@H](C)N` [Example 35, (1R,2S,5R)-2-(((S)-2-Aminopropanamido)methyl)-5-(2-boronoethyl)-1-(ethylamino)cyclohexane-1-carboxylic acid dihydrochloride], the IC50 in assay [1] and in assay [2] was more than 300 nM in each case.

Turning to `N[C@@H](Cc1ccc(O)cc1)C(=O)NC[C@@H]1CC[C@@H](CCB(O)O)C[C@]1(N)C(=O)O` [Example 14, (1R,2S,5R)-1-Amino-2-(((S)-2-amino-3-(4-hydroxyphenyl)propanamido)methyl)-5-(2-boronoethyl)cyclohexane-1-carboxylic acid dihydrochloride], the IC50 in assay [1] is 200 to 299 nM; in assay [2] it was more than 300 nM.

For `CNCC(=O)NC[C@@H]1CC[C@@H](CCB(O)O)C[C@]1(N)C(=O)O` [Example 31, (1R,2S,5R)-1-Amino-5-(2-boronoethyl)-2-((2-(methylamino)acetamido)methyl)cyclohexane-1-carboxylic acid dihydrochloride], the figures for the IC50 in assay [1] and in assay [2] were 100 to 199 nM and more than 300 nM, respectively.

Turning to `C[C@H](N)C(=O)N(C)C[C@@H]1CC[C@@H](CCB(O)O)C[C@]1(N)C(=O)O` [Example 24, (1R,2S,5R)-1-Amino-2-(((S)-2-amino-N-methylpropanamido)methyl)-5-(2-boronoethyl)cyclohexane-1-carboxylic acid dihydrochloride], the IC50 in assay [1] is 100 to 199 nM; in assay [2], more than 300 nM.

With `COC(=O)[C@@]1(N)C[C@H](CCB(O)O)CC[C@H]1CNC(=O)[C@@H](N)C(C)C` [Example 32, (2-((1R,3R,4S)-3-Amino-4-(((S)-2-amino-3-methylbutanamido)methyl)-3-(methoxycarbonyl)cyclohexyl)ethyl)boronic acid dihydrochloride], the IC50 in assay [1] and in assay [2] was more than 300 nM in each case.

Consider `N[C@@H](CCC(=O)O)C(=O)NC[C@@H]1CC[C@@H](CCB(O)O)C[C@]1(N)C(=O)O` [Example 30, (1R,2S,5R)-1-Amino-2-(((S)-2-amino-4-carboxybutanamido)methyl)-5-(2-boronoethyl)cyclohexane-1-carboxylic acid dihydrochloride], for which the IC50 in assay [1] and in assay [2] was more than 300 nM each time.

In the case of `CC(C)[C@H](N)C(=O)N(C)C[C@@H]1CC[C@@H](CCB(O)O)C[C@]1(N)C(=O)O` [Example 25, (1R,2S,5R)-1-Amino-2-(((S)-2-amino-N,3-dimethylbutanamido)methyl)-5-(2-boronoethyl)cyclohexane-1-carboxylic acid dihydrochloride], the IC50 is 1 to 99 nM in assay [1] and more than 300 nM in assay [2].

With `CC(C)[C@H](N)C(=O)NC[C@@H]1CC[C@@H](CCB2OC(=O)CC(CC(=O)O)(C(=O)O)O2)C[C@]1(N)C(=O)O` (stereo partly drawn) [Example 33, 2-(2-((1R,3R,4S)-3-Amino-4-(((S)-2-amino-3-methylbutanamido)methyl)-3-carboxycyclohexyl)ethyl)-4-(carboxymethyl)-6-oxo-1,3,2-dioxaborinane-4-carboxylic acid dihydrochloride], the values for the IC50 in assay [1] and in assay [2] were 100 to 199 nM and more than 300 nM, respectively.

Consider `CC(C)(O)[C@H](N)C(=O)NC[C@@H]1CC[C@@H](CCB(O)O)C[C@]1(N)C(=O)O` [Example 16, (1R,2S,5R)-1-Amino-2-(((S)-2-amino-3-hydroxy-3-methylbutanamido)methyl)-5-(2-boronoethyl)cyclohexane-1-carboxylic acid dihydrochloride], for which the IC50 in assay [1] is 100 to 199 nM; in assay [2] it was more than 300 nM.

Regarding `N[C@@H](CO)C(=O)NC[C@@H]1CC[C@@H](CCB(O)O)C[C@]1(N)C(=O)O` [Example 7, (1R,2S,5R)-1-Amino-2-(((S)-2-amino-3-hydroxypropanamido)methyl)-5-(2-boronoethyl)cyclohexane-1-carboxylic acid dihydrochloride], the IC50 in assay [1] was 100 to 199 nM; in assay [2], more than 300 nM.
